Measurements taken from ChEMBL document CHEMBL1687873, “Virtual screening studies on HIV-1 reverse transcriptase inhibitors to design potent leads” (Eur J Med Chem, 2011).

Target: Human immunodeficiency virus type 1 reverse transcriptase (Human immunodeficiency virus 1, UniProt Q72547)
Assay: Inhibition of Human immunodeficiency virus 1 reverse transcriptase

Row | SMILES | IC50
1 | CC1=C(Sc2cccc(C(F)(F)F)c2)C(COCCO)C(=O)NC1=O (centres undefined) | 0.52 nM
2 | CC1=C(Sc2cccc(F)c2)C(COCCO)C(=O)NC1=O (centres undefined) | 1.7 nM
3 | CC1=C(Sc2cccc(Cl)c2)C(COCCO)C(=O)NC1=O (centres undefined) | 2.2 nM
4 | CC1=C(Sc2cccc(Br)c2)C(COCCO)C(=O)NC1=O (centres undefined) | 3.1 nM
5 | CC1=C(Sc2cccc([N+](=O)[O-])c2)C(COCCO)C(=O)NC1=O (centres undefined) | 5.4 nM
6 | CC1=C(Sc2cccc(O)c2)C(COCCO)C(=O)NC1=O (centres undefined) | 6.9 nM
7 | CC1=C(Sc2cc(C)cc(C)c2)C(COCCO)C(=O)NC1=O (centres undefined) | 24 nM
8 | CC1=C(Sc2cc(Cl)cc(Cl)c2)C(COCCO)C(=O)NC1=O (centres undefined) | 27 nM
9 | CCC1=C(Sc2cc(C)cc(C)c2)C(COCCO)C(=O)NC1=O (centres undefined) | 80 nM
10 | CCOCC1C(=O)NC(=O)C(CC)=C1Sc1ccccc1 (centres undefined) | 100 nM
11 | CCOCC1C(=S)NC(=O)C(CC)=C1Sc1ccccc1 (centres undefined) | 137 nM
12 | CCOCC1C(=O)NC(=O)C(CC)=C1Sc1cc(C)cc(C)c1 (centres undefined) | 210 nM
13 | CCOCC1C(=S)NC(=O)C(CC)=C1Sc1cc(C)cc(C)c1 (centres undefined) | 300 nM
14 | CCC1=C(Sc2ccccc2)C(COC2CCCCC2)C(=S)NC1=O (centres undefined) | 240 nM
15 | CCC1=C(Sc2ccccc2)C(COCC2CCCCC2)C(=S)NC1=O (centres undefined) | 375 nM
16 | CCC1=C(Sc2ccccc2)C(COCc2ccc(C)cc2)C(=S)NC1=O (centres undefined) | 422 nM
17 | CCC1=C(Sc2ccccc2)C(COCc2ccc(Cl)cc2)C(=S)NC1=O (centres undefined) | 404 nM

Second part, the compound after the results:

Row | IC50 | SMILES
18 | 20 nM | COc1cccc(SC2=C(C)C(=O)NC(=O)C2COCCO)c1 (centres undefined)
19 | 4 nM | CC1=C(Sc2cccc(I)c2)C(COCCO)C(=O)NC1=O (centres undefined)
20 | 31 nM | CC(C)C1=C(Sc2ccccc2)C(COCCO)C(=O)NC1=O (centres undefined)
21 | 54 nM | Cc1cc(C)cc(SC2=C(C(C)C)C(=O)NC(=O)C2COCCO)c1 (centres undefined)
22 | 111 nM | CC1=C(Sc2ccccc2)C(COCc2ccccc2)C(=O)NC1=O (centres undefined)
23 | 473 nM | CCC1=C(Sc2ccccc2)C(COCCc2ccccc2)C(=S)NC1=O (centres undefined)
24 | 597 nM | CCOCC1C(=O)NC(=O)C(CC)=C1Sc1cc(Cl)cc(Cl)c1 (centres undefined)
